Assay results as given in US6365616B1, “Methimazole derivatives and tautomeric cyclic thiones to treat autoimmune diseases” (Sentron Medical, Inc., priority 1998, dated 2002).
Where two headings read alike, the source gives them in different places.

B1: γ-IFN: rat recombinant γ-interferon, 100 U/ml, used to increase MHC class I and class II expression in FRTL-5 cells (protein, UniProt P01581 23-156, looked up)
Interferon gamma: QGTLIESLESLKNYFNSSSMDAMEGKSLLLDIWRNWQKDGNTKILESQIISFYLRLFEVLKDNQAISNNISVIESHLITNFFSNSKAKKDAFMSIAKFEVNNPQIQHKAVNELIRVIHQLSPESSLRKRKRSRC

Test system: swine class I promoter (PD1)
Assay: Transient transfection CAT assay, class I promoter chimeras in FRTL-5 cells
Format: cell-based
Conditions: for inhibition at 10 µM / inhibition at 25 µM / inhibition at 100 µM / inhibition at 1000 µM / inhibition at 5000 µM: Sus scrofa; for CAT activity +γIFN (100 U/ml) + MMI (5 mM) / CAT activity +γIFN (100 U/ml): 5H medium
Source text: The full length PD1 promoter, PD1 CAT construct pH […], inserted into the multicloning site of pSV3CAT, has been previously described (Erhlich, R. et al. Immunogenetics 30:18-26 (1989)). […] The deletion series was also cloned into the pSV3CAT reporter construct to assess promoter activities (Weisman J D, et al. ibid (1991); Maguire, J. et al., Mol. Cell. Biol., 12:3078-3086 (1992)). […] The number denotes the most 5′-residue in the 5′-flanking region of the PD1 promoter.
FRTL-5 rat thyroid cells (Interthyr Research Foundation, Baltimore, Md.; ATCC CRL8305) were the same subclone (F1) used in the gel shift experiments described earlier. They were grown in the following medium: Coon's modified F-12 medium containing 5% heat-treated, mycoplasma-free calf serum, 1 mM nonessential amino acids, and a mixture of six hormones (6H) containing bovine TSH (1×10^−10M), insulin (10 μg/ml), cortisol (0.4 ng/ml), transferrin (5 μg/ml), glycyl-L-histidyl-L-lysine acetate (10 ng/ml), and somatostatin (10 ng/ml). Cells were diploid and between their 5th and 25th passage. Fresh medium was added every 2 or 3 days and cells were passaged every 7-10 days. In some experiments, cells were grown to near confluency in 6H medium then maintained for 5-8 days, before experiments were initiated, in 5H medium with no TSH.
To measure the promoter activity of MHC class I promoter constructs, as reported by CAT activity, two procedures were used. In one, rat FRTL-5 thyroid cells were transfected by the electroporation method described previously (Saji, M., et al., ibid (1992b); Giuliani, C., et al., ibid (1995); Saji, M., et al., ibid (1997)). In brief, FRTL-5 cells were grown to 80% confluence, put in fresh 6H medium containing 5% calf serum for 12 hours, harvested, washed and suspended at 1.5×10^7 cells/mil in 0.8 ml electroporation buffer (272 mM sucrose, 7 mM sodium phosphate at pH 7.4, and 1 mM MgCl2). Twenty μg of the full-length CAT construct were added with 5 μg pSVGH. Cells were then pulsed (330 volts, capacitance 25 μfarad), plated (approximately 6×10^6 cell/dish), and cultured for 12 hours in 6H medium containing 5% calf serum. […] After 48 hours they were harvested. […] Medium was taken for hGH radioimmunoassay to monitor transfection efficiency (Nichols Institute, San Juan Capistrano, Calif.) and cells were harvested for CAT assays which used 20-50 μg cell lysate in a final volume of 130 μl. Incubation was at 37° C. for 2 or 4 hours; acetylated chloramphenicol was separated by thin layer chromatograpy (TLC) and positive spots on TLC plates were cut out and quantitated in a scintillation spectrometer. CAT activity was normalized to GH activity and/or cell protein before data were compared.
Alternatively transient transfections used the same class I-CAT chimeras and a DEAE-dextran procedure (Lopata M A, et al., Nucleic Acids Res. 12:5707-5717 (1984); Giuliani C, et al., ibid (1995)). Cells were grown to near (80%) confluency in 6H medium, shifted to 5H medium for 1 day, washed twice with Dulbecco's modified phosphate buffered saline (DPBS), pH 7.4, and incubated 1 hour with 5 ml serum-free 5H medium containing the plasmid DNA plus 250 μg DEAE-dextran (5 Prime-3 Prime, Inc.). Cells were then exposed to 10% dimethylsulfoxide in DPBS for 3 min., washed twice in DPBS, cultured in 5H medium for 24 hours, then maintained therein another 48 hours with or without MMI, MMI derivatives or tautomeric cyclic thiones, as noted. Efficiency of transfection was determined by cotransfection as above or with 5 μg pRSVLuc (De Wet J R, et al., Mol. Cell. Biol. 7:725-737 (1987)).
In this experiment, FRTL-5 cells were grown to near confluency in 6H medium (plus TSH) and then were maintained in 5H medium (no TSH) for 7 days before being treated with γ-IFN or γ-IFN plus MMI for 40 hours. Control cells were those maintained in 5H medium for the same 40 hours. CAT activity was measured as described above.

[1] = FRTL-5, 10 μM, 100 U/ml γ-interferon, 6H medium, 40 hours, read-out: % inhibition of IFN-increased p(−203)CAT class I promoter activity
[2] = FRTL-5, 25 μM, 6H medium, 36 hours, read-out: % inhibition of basal p(−203)CAT class I promoter activity
[3] = FRTL-5, 100 μM, 6H medium, 36 hours, read-out: % inhibition of basal p(−203)CAT class I promoter activity
[4] = FRTL-5, 100 μM, 100 U/ml γ-interferon, 6H medium, 40 hours, read-out: % inhibition of IFN-increased p(−203)CAT class I promoter activity
[5] = FRTL-5, 1.0 mM, 6H medium, 36 hours, read-out: % inhibition of basal p(−203)CAT class I promoter activity
[6] = FRTL-5, 1.0 mM, 100 U/ml γ-interferon, 6H medium, 40 hours, read-out: % inhibition of IFN-increased p(−203)CAT class I promoter activity
[7] = FRTL-5, read-out: % inhibition of IFN-increased p(−203)CAT class I promoter activity
[8] = FRTL-5, read-out: % inhibition of basal p(−203)CAT class I promoter activity
[9] = FRTL-5, 5 mM, 6H medium, 36 hours, read-out: % inhibition of basal p(−203)CAT class I promoter activity
[10] = FRTL-5, 5 mM, 100 U/ml γ-interferon, 6H medium, 40 hours, read-out: % inhibition of IFN-increased p(−203)CAT class I promoter activity
[11] = 10 μM, 100 U/ml γ-interferon, 6H medium, 40 hours
[12] = 100 μM, 100 U/ml γ-interferon, 6H medium, 40 hours
[13] = 1.0 mM, 100 U/ml γ-interferon, 6H medium, 40 hours
[14] = 5 mM, 100 U/ml γ-interferon, 6H medium, 40 hours

Row | Molecule | inhibition at 10 µM [1] | inhibition at 25 µM [2] | inhibition at 100 µM [3] | inhibition at 100 µM [4] | inhibition at 1000 µM [5] | inhibition at 1000 µM [6] | inhibition at 5000 µM [9] | inhibition at 5000 µM [10] | other results
1 | Cn1c(-c2ccccc2)cnc1S [Compound 10, 5-Phenylmethimazole] | 35 ± 10% | 45 ± 9% | 71 ± 6% | 81 ± 14% | 92 ± 12% | 90 ± 13% | – | – | –
2 | Sc1nc2ccccc2[nH]1 [Compound 4, 2-Mercaptobenzimidazole] | – | – | – | – | – | – | – | – | inhibition at 10 µM [7]: 0%; inhibition at 100 µM [7]: 0%; inhibition at 1000 µM [7]: 40 ± 8%; inhibition at 5000 µM [7]: 76 ± 10%; inhibition at 25 µM [8]: 0%; inhibition at 100 µM [8]: 0%; inhibition at 1000 µM [8]: 50 ± 12%; inhibition at 5000 µM [8]: 90 ± 14%
3 | CSc1nccn1C [Compound 7, S-Methylmethimazole] | 0% | 0% | 10 ± 9% | 14 ± 11% | 51 ± 6% | 50 ± 13% | 68 ± 8% | 58 ± 12% | –
4 | O=[N+]([O-])c1ccc2[nH]c(S)nc2c1 [Compound 5, 2-Mercapto-5-nitrobenzimidazole] | – | – | – | – | – | – | 45 ± 8% | 43 ± 9% | –
5 | Cn1ccn(C)c1=S [Compound 8, N-Methylmethimazole] | – | – | – | – | – | – | – | – | % inhibition of IFN-increased p(−203)CAT class I promoter activity [11]: 0%; % inhibition of basal p(−203)CAT class I promoter activity (25 μM, 6H medium, 36 hours): 5 ± 5%; % inhibition of basal p(−203)CAT class I promoter activity (100 μM, 6H medium, 36 hours): 48 ± 10%; % inhibition of IFN-increased p(−203)CAT class I promoter activity [12]: 38 ± 9%; % inhibition of basal p(−203)CAT class I promoter activity (1.0 mM, 6H medium, 36 hours): 72 ± 6%; % inhibition of IFN-increased p(−203)CAT class I promoter activity [13]: 69 ± 7%; % inhibition of basal p(−203)CAT class I promoter activity (5 mM, 6H medium, 36 hours): 87 ± 11%; % inhibition of IFN-increased p(−203)CAT class I promoter activity [14]: 77 ± 14%
6 | Sc1ncc[nH]1 [Compound 3, 2-Mercaptoimidazole] | – | – | – | – | – | – | – | – | % inhibition of IFN-increased p(−203)CAT class I promoter activity [11]: None; % inhibition of IFN-increased p(−203)CAT class I promoter activity [12]: None; % inhibition of IFN-increased p(−203)CAT class I promoter activity [13]: None; % inhibition of IFN-increased p(−203)CAT class I promoter activity [14]: None
7 | Cn1ccnc1S [Compound 1, 1-Methylimidazole-2-thiol] | 0% | 0% | 0% | 0% | 32 ± 7% | 35 ± 8% | 74 ± 10% | 72 ± 12% | CAT activity +γIFN (100 U/ml) + MMI (5 mM) (chimera p(−127), 40 hours): 55 ± 4 % of Control; CAT activity +γIFN (100 U/ml) + MMI (5 mM) (chimera p(−203), 40 hours): 95 ± 26 % of Control; CAT activity +γIFN (100 U/ml) + MMI (5 mM) (chimera p(−1100), 40 hours): 163 ± 48 % of Control; CAT activity +γIFN (100 U/ml) + MMI (5 mM) (pSV0 control plasmid, 40 hours): 38 ± 9 % of Control
8 | Cc1cnc(S)n1C [Compound 9, 5-Methylmethimazole] | 0% | 0% | 0% | 0% | 14 ± 10% | 10 ± 10% | 25 ± 7% | 29 ± 11% | –
9 | Cc1ncc([N+](=O)[O-])n1CCO [Compound 2, 2-Methyl-5-nitro-1-imidazole ethanol] | 0% | 0% | 10 ± 8% | 0% | 37 ± 11% | 45 ± 5% | 74 ± 9% | 84 ± 13% | –
10 | Cc1ccc2[nH]c(S)nc2c1 [Compound 6, 2-Mercapto-5-methylbenzimidazole] | – | – | – | – | – | – | 57 ± 13% | 49 ± 7% | –
11 | B1 | – | – | – | – | – | – | – | – | CAT activity +γIFN (100 U/ml) (chimera p(−127), 40 hours): 500 ± 27 % of Control; CAT activity +γIFN (100 U/ml) (chimera p(−203), 40 hours): 750 ± 25 % of Control; CAT activity +γIFN (100 U/ml) (chimera p(−1100), 40 hours): 460 ± 40 % of Control; CAT activity +γIFN (100 U/ml) (pSV0 control plasmid, 40 hours): 48 ± 7 % of Control
